A word on the IC50: it is the midpoint of a concentration-inhibition curve.

Like-named read-outs stand apart in the source and are kept apart here.

The target of one experiment is CK1ε (Homo sapiens, UniProt P49674). In words: CK1ε kinase assay (Caliper LabChip electrophoretic separation of fluoresceinated peptide substrate and product). Particulars: 200 pM CK1ε, 50 μM ATP, 1.5 μM peptide, 22 hours at room temperature; read-out: CK1ε IC50 range. The experiment is classed as biochemical. The procedure, abridged:
(§1)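 IC50 values were obtained by non-linear regression from eleven-concentration titrations. The kinase reactions were incubated for 22 hours at room temperature before termination with 35 mM EDTA.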

A further experiment concerns the target CK1δ (Homo sapiens, UniProt P48730). Put plainly: CK1δ kinase assay (Caliper LabChip electrophoretic separation of fluoresceinated peptide substrate and product). Particulars: 200 pM CK1δ, 50 μM ATP, 1.5 μM peptide, 22 hours at room temperature; read-out: CK1δ IC50 range. The class given is biochemical. The procedure, abridged:
as §1

The test system of experiment [1] is pancreatic tumor cell. Particulars: in vivo; Brockschmidt et al., Gut 2008; cited from earlier work.
Experiment [2] deals with pancreatic tumor cell. Particulars: in vitro; Brockschmidt et al., Gut 2008; cited from earlier work.

Chain of CK1ε (P49674 whole entry): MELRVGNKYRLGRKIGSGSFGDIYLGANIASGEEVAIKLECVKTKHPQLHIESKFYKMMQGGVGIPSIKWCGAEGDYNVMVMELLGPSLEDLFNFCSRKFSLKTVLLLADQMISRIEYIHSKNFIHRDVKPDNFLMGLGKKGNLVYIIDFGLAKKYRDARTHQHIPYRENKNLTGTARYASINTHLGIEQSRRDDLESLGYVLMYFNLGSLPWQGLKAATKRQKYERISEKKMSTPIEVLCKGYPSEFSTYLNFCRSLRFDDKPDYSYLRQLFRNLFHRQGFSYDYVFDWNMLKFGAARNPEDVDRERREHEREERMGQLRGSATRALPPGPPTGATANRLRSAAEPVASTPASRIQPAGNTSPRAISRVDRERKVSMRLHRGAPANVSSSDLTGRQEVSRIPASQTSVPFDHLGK
Chain of CK1δ (P48730 whole entry): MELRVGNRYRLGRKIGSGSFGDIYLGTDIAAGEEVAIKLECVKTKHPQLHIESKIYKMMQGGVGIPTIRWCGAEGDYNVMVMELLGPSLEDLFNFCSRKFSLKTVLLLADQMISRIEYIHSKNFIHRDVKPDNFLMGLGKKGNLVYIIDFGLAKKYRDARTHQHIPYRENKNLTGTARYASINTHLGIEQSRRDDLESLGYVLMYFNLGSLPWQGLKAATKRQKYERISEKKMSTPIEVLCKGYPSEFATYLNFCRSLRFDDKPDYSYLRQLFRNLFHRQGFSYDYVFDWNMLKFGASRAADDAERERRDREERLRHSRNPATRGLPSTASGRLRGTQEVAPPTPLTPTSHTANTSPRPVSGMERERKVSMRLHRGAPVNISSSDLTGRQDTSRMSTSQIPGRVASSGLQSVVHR

Take `CC12CC3(C)CC(C)(C1)CC(NC(=O)N1CCn4nc(-c5ccc(Cl)c(Cl)c5)c(C(N)=O)c4C1)(C2)C3` [Compound A91, 2-(3,4-Dichlorophenyl)-N^5-((3s,5s,7s)-3,5,7-trimethyladamantan-1-yl)-6,7-dihydropyrazolo[1,5-a]pyrazine-3,5(4H)-dicarboxamide]: the IC50 at CK1ε and at CK1δ was 0.01 to 10 nM throughout.

For the compound `CC12CC3CC(C)(C1)CC(NC(=O)N1CCn4nc(-c5ccc(Cl)c(Cl)c5)c(C(N)=O)c4C1)(C3)C2` [Compound A92, 2-(3,4-Dichlorophenyl)-N^5-((1r,3R,5S,7r)-3,5-dimethyladamantan-1-yl)-6,7-dihydropyrazolo[1,5-a]pyrazine-3,5(4H)-dicarboxamide], the IC50 at CK1ε and at CK1δ was 0.01 to 10 nM throughout.

For `C[C@@]12C[C@H]3C[C@@](Cl)(C1)C[C@](NC(=O)N1CCn4nc(-c5ccc(Cl)c(Cl)c5)c(C(N)=O)c4C1)(C3)C2` [Compound A93, N^5-((1S,3R,5S,7R)-3-Chloro-5-methyladamantan-1-yl)-2-(3,4-dichlorophenyl)-6,7-dihydropyrazolo[1,5-a]pyrazine-3,5(4H)-dicarboxamide], the IC50 on CK1ε and at CK1δ was 0.01 to 10 nM throughout.

Regarding `NC(=O)c1c(-c2cccc(F)c2)nn2c1CN(C(=O)NC13CCC(C(F)F)(CC1)CC3)CC2` [Compound A94, N^5-(4-(Difluoromethyl)bicyclo[2.2.2]octan-1-yl)-2-(3-fluorophenyl)-6,7-dihydropyrazolo[1,5-a]pyrazine-3,5(4H)-dicarboxamide], the IC50 at CK1ε and at CK1δ was 0.01 to 10 nM in each case.

For `NC(=O)c1c(-c2cccc(F)c2)nn2c1CN(C(=O)NC(CF)(CF)CF)CC2` [Compound A95, N^5-(1,3-Difluoro-2-(fluoromethyl)propan-2-yl)-2-(3-fluorophenyl)-6,7-dihydropyrazolo[1,5-a]pyrazine-3,5(4H)-dicarboxamide], the half-maximal inhibitory concentration (IC50) at CK1ε is 10 to 100 nM; on CK1δ, 0.01 to 10 nM.

On to `NC(=O)c1c(-c2ccc(F)c(Cl)c2)nn2c1CN(C(=O)NC1CC(F)(F)C1)C[C@@H]2CF` [Compound A114, (R)-2-(3-Chloro-4-fluorophenyl)-N^5-(3,3-difluorocyclobutyl)-7-(fluoromethyl)-6,7-dihydropyrazolo[1,5-a]pyrazine-3,5(4H)-dicarboxamide], for which the IC50 at CK1ε and on CK1δ was 0.01 to 10 nM each time.

On to `C[C@H]1CN(C(=O)NC2CC(F)(F)C2)Cc2c(C(N)=O)c(-c3ccc(F)c(Cl)c3)nn21` [Compound A115, (S)-2-(3-Chloro-4-fluorophenyl)-N^5-(3,3-difluorocyclobutyl)-7-methyl-6,7-dihydropyrazolo[1,5-a]pyrazine-3,5(4H)-dicarboxamide], for which the IC50 at CK1ε and on CK1δ was 0.01 to 10 nM in each case.

Regarding `NC(=O)c1c(-c2ccc(F)c(Cl)c2)nn2c1CN(C(=O)NC1CC(F)(F)C1)C[C@@H]2CO` [Compound A116, (R)-2-(3-Chloro-4-fluorophenyl)-N^5-(3,3-difluorocyclobutyl)-7-(hydroxymethyl)-6,7-dihydropyrazolo[1,5-a]pyrazine-3,5(4H)-dicarboxamide], the IC50 on CK1ε and on CK1δ was 0.01 to 10 nM each time.

Regarding `CC(C)(C)NC(=O)N1Cc2c(C(N)=O)c(-c3ccc(F)c(Cl)c3)nn2C(C(C)(C)C)C1` (centres unmarked) [Compound A118, N^5-7-Di-tert-butyl-2-(3-chloro-4-fluorophenyl)-6,7-dihydropyrazolo[1,5-a]pyrazine-3,5(4H)-dicarboxamide], the half-maximal inhibitory concentration (IC50) on CK1ε and at CK1δ was 0.01 to 10 nM each time.

For the compound `CC(C)(C)NC(=O)N1Cc2c(C(N)=O)c(-c3cccc(Cl)c3)nn2C2(CC2)C1` [Compound A129, N^5-(tert-Butyl)-2′-(3-chlorophenyl)-4′H-spiro[cyclopropane-1,7′-pyrazolo[1,5-a]pyrazine]-3′,5′(6′H)-dicarboxamide], the IC50 on CK1ε and on CK1δ was 0.01 to 10 nM throughout.

Regarding `CC(C)(C)NC(=O)N1Cc2c(C(N)=O)c(-c3cccc(F)c3)nn2C2(CC2)C1` [Compound A131, N^5′-(tert-Butyl)-2′-(3-fluorophenyl)-4′H-spiro[cyclopropane-1,7′-pyrazolo[1,5-a]pyrazine]-3′,5′(6′H)-dicarboxamide], the IC50 at CK1ε and at CK1δ was 10 to 100 nM throughout.

For `CC(C)(C)NC(=O)N1Cc2c(C(N)=O)c(-c3ccc(F)c(Cl)c3)nn2C2(CC2)C1` [Compound A132, N^5-(tert-Butyl)-2′-(3-chloro-4-fluorophenyl)-4′H-spiro[cyclopropane-1,7′-pyrazolo[1,5-a]pyrazine]-3′,5′(6′H)-dicarboxamide], the IC50 on CK1ε and on CK1δ was 0.01 to 10 nM throughout.

For `NC(=O)c1c(-c2ccc(F)c(Cl)c2)nn2c1CN(C(=O)NC1CC(F)(F)C1)CC21CC1` [Compound A133, 2′-(3-Chloro-4-fluorophenyl)-N^5′-(3,3-difluorocyclobutyl)-4′H-spiro[cyclopropane-1,7′-pyrazolo[1,5-a]pyrazine]-3′,5′(6′H)-dicarboxamide], the IC50 on CK1ε and at CK1δ was 0.01 to 10 nM in each case.

`CC(C)(C)NC(=O)N1Cc2c(C(N)=O)c(-c3ccc(F)c(Cl)c3)nn2C2(COC2)C1` [Compound A134, N^5′-(tert-Butyl)-2′-(3-chloro-4-fluorophenyl)-4′H-spiro[oxetane-3,7′-pyrazolo[1,5-a]pyrazine]-3′,5′(6′H)-dicarboxamide]: the IC50 at CK1ε and on CK1δ was 0.01 to 10 nM in each case.

On to `CC(=O)N1CC2(C1)CN(C(=O)NC(C)(C)C)Cc1c(C(N)=O)c(-c3ccc(F)c(Cl)c3)nn12` [Compound A135, 1-Acetyl-N^5′-(tert-butyl)-2′-(3-chloro-4-fluorophenyl)-4′H-spiro[azetidine-3,7′-pyrazolo[1,5-a]pyrazine]-3′,5′(6′H)-dicarboxamide], for which the IC50 at CK1ε and at CK1δ was 0.01 to 10 nM each time.

As for `CC(C)(C)NC(=O)N1Cc2c(C(N)=O)c(-c3ccc(F)c(Cl)c3)nn2C(CF)(CF)C1` [Compound A136], the IC50 at CK1ε and on CK1δ was 0.01 to 10 nM each time.

With `NC(=O)c1c(-c2ccc(F)c(Cl)c2)nn2c1CN(C(=O)NC13CCC(F)(CC1)C3)CC2` [Compound A137, 2-(3-Chloro-4-fluorophenyl)-N^5-(4-fluorobicyclo[2.2.1]heptan-1-yl)-6,7-dihydropyrazolo[1,5-a]pyrazine-3,5(4H)-dicarboxamide], the IC50 at CK1ε and at CK1δ was 0.01 to 10 nM each time.

With `NC(=O)c1c(-c2ccc(F)c(Cl)c2)nn2c1CN(C(=O)NC13CCC(CF)(CC1)C3)CC2` [Compound A138, 2-(3-Chloro-4-fluorophenyl)-N^5-(4-(fluoromethyl)bicyclo[2.2.1]heptan-1-yl)-6,7-dihydropyrazolo[1,5-a]pyrazine-3,5(4H)-dicarboxamide], the IC50 at CK1ε and at CK1δ was 0.01 to 10 nM each time.

Consider `NC(=O)c1c(-c2ccc(F)c(Cl)c2)nn2c1CN(C(=O)NC13CCC(C(F)F)(CC1)C3)CC2` [Compound A139, 2-(3-Chloro-4-fluorophenyl)-N^5-(4-(difluoromethyl)bicyclo[2.2.1]heptan-1-yl)-6,7-dihydropyrazolo[1,5-a]pyrazine-3,5(4H)-dicarboxamide], for which the IC50 on CK1ε and at CK1δ was 0.01 to 10 nM in each case.

`N#CC12CCC(NC(=O)N3CCn4nc(-c5ccc(F)c(Cl)c5)c(C(N)=O)c4C3)(CC1)C2` [Compound A140, 2-(3-Chloro-4-fluorophenyl)-N^5-(4-cyanobicyclo[2.2.1]heptan-1-yl)-6,7-dihydropyrazolo[1,5-a]pyrazine-3,5(4H)-dicarboxamide]: the IC50 at CK1ε and on CK1δ was 0.01 to 10 nM in each case.

With `COc1cc(OC)c(C=C2C(O)=Nc3ccccc32)c(OC)c1` [IC261], the “pancreatic tumor cell growth” value in the experiment with pancreatic tumor cell [1] and with pancreatic tumor cell [2] was “reduces pancreatic tumor cell growth” throughout.

With `NC(=O)c1c(-c2ccc(Cl)c(Cl)c2)nn2c1CN(C(=O)N[C@H]1C[C@H](OC(F)(F)F)C1)CC2` [compound 265], the IC50 on CK1ε and on CK1δ was 0.01 to 10 nM each time.

On to `NC(=O)c1c(-c2ccc(Cl)c(Cl)c2)nn2c1CN(C(=O)NC1(CF)CC(F)(F)C1)CC2` [compound 303], for which the IC50 at CK1ε and at CK1δ was 0.01 to 10 nM each time.

Regarding `N#CC1(NC(=O)N2CCn3nc(-c4ccc(Cl)c(Cl)c4)c(C(N)=O)c3C2)CCOC1` (centres unmarked) [compound 335], the IC50 at CK1ε and on CK1δ was 0.01 to 10 nM each time.

Turning to “N^5-(tert-Butyl)-2-(3-chloro-4-fluorophenyl)-7-(2-cyanoethyl)-6,7-dihydropyrazolo[1,5-a]pyrazine-3,5(4H)-dicarboxamide [Compound A104]”, the IC50 at CK1ε and at CK1δ was 0.01 to 10 nM throughout.

Source of the values: patent US9273058B2 (BRISTOL-MYERS SQUIBB COMPANY, priority 2013, dated 2016).
